The assay has as its system P388 leukemia ip, CD2F1 mice, survival T/C. In words: NCI In Vivo Anticancer Drug Screen. Data for tumor model P388 Leukemia (intraperitoneal) in CD2F1 (CDF1) mice. Particulars: endpoint: median survival time, higher = longer survival. Summed up:
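Mice carrying the transplanted tumor received test compound or vehicle. Survival was recorded in each group, and the value is the treated-group measurement divided by that of the vehicle-treated control group.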

[1] abbreviates: dose: 50.0 mg/kg/injection, schedule: Q01DX005 (ip), vehicle: Klucel (hydroxypropylcellulose) (HPC).
The mark [2] stands for this setting: dose: 200.0 mg/kg/injection, schedule: Q01DX005 (ip), vehicle: Klucel (hydroxypropylcellulose) (HPC).
Setting [3] is: dose: 50.0 mg/kg/injection, schedule: Q01DX005 (ip), vehicle: saline with Tween-80.
[4] abbreviates: dose: 100.0 mg/kg/injection, schedule: Q01DX005 (ip), vehicle: saline with Tween-80.
The mark [5] stands for this setting: dose: 200.0 mg/kg/injection, schedule: Q01DX005 (ip), vehicle: saline with Tween-80.
[6] abbreviates: dose: 50.0 mg/kg/injection, schedule: Q01DX005 (ip), vehicle: saline.
[7] abbreviates: dose: 100.0 mg/kg/injection, schedule: Q01DX005 (ip), vehicle: saline.
Setting [8] is: dose: 200.0 mg/kg/injection, schedule: Q01DX005 (ip), vehicle: saline.
The mark [9] stands for this setting: dose: 50.0 mg/kg/injection, schedule: Q01DX009 (ip), vehicle: saline with Tween-80.
The mark [10] stands for this setting: dose: 100.0 mg/kg/injection, schedule: Q01DX009 (ip), vehicle: saline with Tween-80.
Setting [11] is: dose: 200.0 mg/kg/injection, schedule: Q01DX009 (ip), vehicle: saline with Tween-80.
Setting [12] is: dose: 12.5 mg/kg/injection, schedule: Q01DX005 (ip), vehicle: Klucel (hydroxypropylcellulose) (HPC).
Setting [13] is: dose: 25.0 mg/kg/injection, schedule: Q01DX005 (ip), vehicle: Klucel (hydroxypropylcellulose) (HPC).
The mark [14] stands for this setting: dose: 100.0 mg/kg/injection, schedule: Q01DX009 (ip), vehicle: Klucel (hydroxypropylcellulose) (HPC).
[15] abbreviates: dose: 200.0 mg/kg/injection, schedule: Q01DX009 (ip), vehicle: Klucel (hydroxypropylcellulose) (HPC).

Values joined by “and” are separate entries in the source; they are usually repeats but may differ in a detail not shown here. Equal entries are not always repeated. Toxic doses and inconclusive results are not listed. Square brackets hold non-standard residues; d marks the D form. Peptide text beside a SMILES is read from it. * marks the point of attachment. ξ: configuration not given here. Ac5c = NC1(C(=O)O)CCCC1; Cbz = O=C(OCc1ccccc1)*; ξP = O=C(O)C1CCCN1

Consider `CCn1c(O)c(N=NC(=S)SCc2ccccc2)c2ccccc21`, for which the T/C (dose: 1.56 mg/kg/injection, schedule: Q01DX009 (ip), vehicle: suspension in saline) was 97 % of control; the T/C (dose: 3.12 mg/kg/injection, schedule: Q01DX009 (ip), vehicle: suspension in saline) was 101 % of control; the T/C (dose: 6.25 mg/kg/injection, schedule: Q01DX009 (ip), vehicle: suspension in saline) is 87 % of control and 97 % of control; the T/C (dose: 25.0 mg/kg/injection, schedule: Q01DX009 (ip), vehicle: saline) was 94 % of control.
On to `O=C1C2Nc3ccccc3N=C2OC1c1ccccc1` (centres undefined), for which the T/C runs as follows: under setting [1], 96 % of control; (dose: 100.0 mg/kg/injection, schedule: Q01DX005 (ip), vehicle: Klucel (hydroxypropylcellulose) (HPC)) 96 % of control; under setting [2], 100 % of control.
Regarding `Cc1ccc(S(=O)(=O)N(C)c2cc(Cl)c(C(=O)O)c(Cl)c2)cc1`, the T/C is 99 % of control (dose: 88.0 mg/kg/injection, schedule: Q04DX003 (ip), vehicle: saline with Tween-80); 100 % of control (dose: 133.0 mg/kg/injection, schedule: Q04DX003 (ip), vehicle: saline with Tween-80); 99 % of control (dose: 200.0 mg/kg/injection, schedule: Q04DX003 (ip), vehicle: saline with Tween-80); 100 % of control (dose: 300.0 mg/kg/injection, schedule: Q04DX003 (ip), vehicle: saline with Tween-80).
On to `Cc1ccccc1NC(=O)C(=O)C(C#N)c1ccc(Cl)cc1Cl` (centres undefined), for which the T/C was 100 % of control under setting [3], 100 % of control under setting [4] and 98 % of control under setting [5].
Take `COC(=O)C[CH2][Sn]([CH2]CC(=O)OC)([c]1ccccc1)[c]1ccccc1`: the T/C reads like this: under setting [6], 100 % of control; under setting [7], 100 % of control; under setting [8], 97 % of control.
As for `C[C@H](CCC(=O)O)[C@H]1CC[C@H]2[C@@H]3[C@H](O)C[C@@H]4C[C@H](O)CC[C@]4(C)[C@H]3C[C@H](O)[C@]12C` (tested in a mixture with another compound), the T/C is, setting by setting: (dose: 75.0 mg/kg/injection, schedule: Q01DX009 (ip), vehicle: saline sonified) 104 % of control; (dose: 300.0 mg/kg/injection, schedule: Q01DX009 (ip), vehicle: saline sonified) 163 % of control.
With `NC1(C(=O)N2CCCC2C(=O)O)CCCC1` (centres undefined) (H-[Ac5c]-[ξP]-OH), the T/C under setting [6] was 96 % of control, the T/C under setting [7] is 89 % of control and the T/C under setting [8] is 108 % of control.
For `C/C=C/C/C=C/CCC(=O)C1OC1C(N)=O` (centres undefined), the T/C is 93 % of control (dose: 8.0 mg/kg/injection, schedule: Q01DX009 (ip), vehicle: Klucel (hydroxypropylcellulose) (HPC)); 93 % of control (dose: 16.0 mg/kg/injection, schedule: Q01DX009 (ip), vehicle: Klucel (hydroxypropylcellulose) (HPC)); 102 % of control (dose: 32.0 mg/kg/injection, schedule: Q01DX009 (ip), vehicle: Klucel (hydroxypropylcellulose) (HPC)); 93 % of control (dose: 64.0 mg/kg/injection, schedule: Q01DX009 (ip), vehicle: Klucel (hydroxypropylcellulose) (HPC)).
Take `COc1ccc(C2C3=C(CCCC3=O)Oc3cc4c(cc32)OCO4)cc1` (centres undefined): the T/C reads like this: (dose: 7.5 mg/kg/injection, schedule: Q01DX005 (ip), vehicle: saline with Tween-80) 100 % of control; (dose: 15.0 mg/kg/injection, schedule: Q01DX005 (ip), vehicle: saline with Tween-80) 94 % of control; (dose: 30.0 mg/kg/injection, schedule: Q01DX005 (ip), vehicle: saline with Tween-80) 92 % of control; (dose: 60.0 mg/kg/injection, schedule: Q01DX005 (ip), vehicle: saline with Tween-80) 90 % of control and 91 % of control.
In the case of `CCn1c2ccccc2c2cc(N=Nc3[nH]c4ccccc4c3CN(C)C)ccc21`, the T/C under setting [9] is 107 % of control and 108 % of control (2×); the T/C under setting [10] is 105 % of control and 106 % of control; the T/C under setting [11] is 100 % of control and 115 % of control and 118 % of control.
Consider `C/C=C1/CN2C3C[C@@]45c6cc(OC)c(OC)cc6NC4(O3)C2CC1C5C(=O)OC` (some centres undefined), for which the T/C (dose: 5.25 mg/kg/injection, schedule: Q01DX005 (ip), vehicle: Klucel (hydroxypropylcellulose) (HPC)) was 102 % of control; the T/C (dose: 10.5 mg/kg/injection, schedule: Q01DX005 (ip), vehicle: Klucel (hydroxypropylcellulose) (HPC)) was 102 % of control; the T/C (dose: 21.0 mg/kg/injection, schedule: Q01DX005 (ip), vehicle: Klucel (hydroxypropylcellulose) (HPC)) is 98 % of control; the T/C (dose: 42.0 mg/kg/injection, schedule: Q01DX005 (ip), vehicle: Klucel (hydroxypropylcellulose) (HPC)) is 99 % of control.
With `CC(NC(=O)OCc1ccccc1)C(=O)NC(C(N)=O)C(C)C` (stereo not drawn) (Cbz-Ala-Val-NH2; configuration not given here), the T/C was 89 % of control under setting [12], 100 % of control under setting [13] and 86 % of control under setting [2].
As for `c1cc2c(cc1C1SCSCS1)OCO2`, the T/C is 100 % of control under setting [14]; 120 % of control under setting [15]; 110 % of control (dose: 400.0 mg/kg/injection, schedule: Q01DX009 (ip), vehicle: Klucel (hydroxypropylcellulose) (HPC)).
As for `COc1ccc(B(C)N2CCCCC2C)cc1` (centres undefined), the T/C runs as follows: under setting [3], 102 % of control; under setting [4], 100 % of control; under setting [5], 98 % of control.
`Cn1c2nc(-[n+]3ccc4ccccc4c3)nc-2c([O-])n(C)c1=O`: the T/C runs as follows: (dose: 100.0 mg/kg/injection, schedule: Q04DX003 (ip), vehicle: saline) 100 % of control; (dose: 200.0 mg/kg/injection, schedule: Q04DX003 (ip), vehicle: saline) 99 % of control; (dose: 400.0 mg/kg/injection, schedule: Q04DX003 (ip), vehicle: saline) 100 % of control.
For `Cc1nn(C(=O)c2ccncc2)c(C)c1N=Nc1ccc(S(=O)(=O)Nc2ncccn2)cc1`, the T/C (dose: 50.0 mg/kg/injection, schedule: Q01DX009 (ip), vehicle: Klucel (hydroxypropylcellulose) (HPC)) is 109 % of control; the T/C under setting [14] was 109 % of control; the T/C under setting [15] is 105 % of control.
In the case of `Clc1ncccc1SSc1cccnc1Cl`, the T/C under setting [9] is 104 % of control, the T/C under setting [10] was 100 % of control and the T/C under setting [11] was 104 % of control.
Take `CN(C)CCCOc1cccc(NC2=C(Cl)C(=O)C(Nc3cccc(OCCCN(C)C)c3)=C(Cl)C2=O)c1`: the T/C is 99 % of control (dose: 6.25 mg/kg/injection, schedule: Q01DX005 (ip), vehicle: Klucel (hydroxypropylcellulose) (HPC)); 100 % of control under setting [12]; 109 % of control under setting [13]; 100 % of control under setting [1].

For the origin of these results see PubChem BioAssay AID330 (DTP/NCI, 2004).
